Measured values taken from patent US20080102476A1, “Analyzing Histamine H4 Receptor-Mediated Effects In Whole Blood” (priority 2003, published 2008).

Key:
human eosinophils [1] = assay: Eosinophil shape change in human PMNL by flow cytometry (GAFS assay); format: cell-based
Description: PMNL were prepared as described above and cells were resuspended in assay buffer (PBS containing 10 mM Ca^2+ and Mg^2+, 10 mM HEPES, 10 mM glucose, and 0.1% BSA, pH 7.2-7.4). Aliquots of cells (5×10^5 PMNL in 80 μl assay buffer) were pretreated with histamine receptor analogues (diphenhydramine, ranitidine, thioperamide, Compound A or H3 receptor antagonist) for 10 min at room temperature before addition of histamine or chemokines in 1.2-ml polypropylene cluster tubes (Costar, Cambridge, Mass.) in a final volume of 100 μl. The tubes were placed in a 37° C. water bath for 10 min (or as indicated), after which they were transferred to an ice-water bath, and 250 μl of ice-cold fixative (2% paraformaldehyde in PBS) was added to terminate the reaction and to maintain the cell shape change. […] Cell shape change was monitored in forward scatter signals. To identify eosinophils and neutrophils in PMNL, cells were stained on ice for 30 min with saturating concentrations of FITC-conjugated anti-CCR3 or anti-CD16 antibodies, which are specific for eosinophils or neutrophils, respectively. Samples after antibody staining were analyzed in flow cytometry.

human eosinophils [2] = assay: Cell surface expression of adhesion molecules on eosinophils by flow cytometry; format: cell-based
Description: Purified eosinophils were used to study cell surface expression of adhesion molecules. Eosinophils were resuspended in PBS containing 10 mM Ca^2+ and Mg^2+, 10 mM HEPES, 10 mM glucose, and 0.1% BSA, pH 7.2-7.4. Aliquots of cells (5×10^5 PMNL) were pretreated with histamine receptor analogues (as described above) for 10 min before addition of histamine or chemokines in 1.2-ml polypropylene cluster tubes (Costar, Cambridge, Mass.) in a final volume of 100 μl. The tubes were placed in a 37° C. water bath for 10 min (or as indicated), after which they were transferred to an ice-water bath, and 250 μl of ice-cold fixative (0.5% paraformaldehyde in PBS) was added. Samples were then incubated on ice for 30 min with saturating concentration of either FITC or phycoerytherine-conjugated anti-CD11a, anti-CD11b or anti-CD54 antibodies, washed, and then analyzed by flow cytometry.

[3] = tested on: purified human eosinophils; assay: In vitro eosinophil chemotaxis assay (Transwell); format: cell-based
Description: Transwells (Costar, Cambridge, Mass.) with 5 μm pore size were coated with 100 μl of 100 ng/ml human fibronectin (Sigma) for 2 h at room temperature. After removal of excess fibronectin, 600 μl of RPMI-1640 medium containing 0.5% BSA and different concentrations of histamine (0.01-100 μM) was added to the bottom chamber, Eosinophils (2×10^5/well) were added to the top chamber. Histamine receptor analogues (diphenhydramine, ranitidine, thioperamide, Compound A or Compound B) were added to both the top and bottom chambers to a final concentration of 10 μM or at other concentration as stated in figure legends. The plates were incubated for 2 h at 37° C. and the number of cells migrated to the bottom chamber was counted for 1 min using flow cytometer.

[4] = tested on: eosinophils in human whole blood; assay: Whole blood eosinophil shape change GAFS assay (Example 1A); format: cell-based
Description: Starting materials were obtained as described in the experiments above. Human whole blood samples were used to study eosinophil shape change response. Human blood samples collected from healthy donors were treated with 3.8% tri-sodium citrate as anti-coagulator (or other anti-coagulators) and centrifuges at 300 rpm. The samples were used for experiments within 1 hour. Aliquots of 80 μl whole blood were pretreated with histamine receptor analogues (such as H1 receptor antagonist diphenhydramine, H2 antagonist ranitidine, H4 receptor antagonists thioperamide and Compound A, and H3 receptor antagonist Compound B) for 10 minutes before addition of histamine or chemokines in 1.2-ml polypropylene cluster tubes (Costar, Cambridge, Mass.) in a final volume of 100 μl. The tubes were placed in a 37° C. water bath for 10 min, after which they were transferred to an ice-water bath, and 250 μl of ice-cold fixative (2% paraformaldehyde in PBS or other fixatives) was added to terminate the reaction and to maintain the cell shape change. Red cells were lysed with 3 ml Qiagen lysis solution (Qiagen, Valencia, Calif.) for 10 minutes at 4° C. Leukocytes were recovered by centrifugation at 2000 rpm for 5 minutes, washed once with either PBS containing 10 mM Ca^2+ and Mg^2+, 10 mM HEPES, 10 mM glucose, and 0.1% BSA (for FIGS. 10 and 11) or PBS containing 0.5% BSA and 2 mM EDTA (for other figures), and then resuspended in the same buffer. The cell shape change was analyzed on a FACScan flow cytometer (Becton Dickinson, Mountain View, Calif.). Eosinophils were gated based on their high autofluorescence relative to neutrophils and shape change was monitored in forward scatter signals. Data were acquired for 1500 high-fluorescence eosinophil events. The results are expressed as the percentage increase in FSC compared to unstimulated cells. Results obtained are provided in the Tables I and II, below, which also correspond to FIG. 7 and FIG. 8, respectively.

human neutrophils = conditions: 1 μM, 10 min
Description: Human PMNL samples were used to study eosinophil shape change response. PMNL were prepared as described above and cells were resuspended in assay buffer (PBS containing 10 mM Ca^2+ and Mg^2+, 10 mM HEPES, 10 mM glucose, and 0.1% BSA, pH 7.2-7.4). Aliquots of cells (5×10^5 PMNL in 80 μl assay buffer) were pretreated with histamine receptor analogues (diphenhydramine, ranitidine, thioperamide, Compound A or H3 receptor antagonist) for 10 min at room temperature before addition of histamine or chemokines in 1.2-ml polypropylene cluster tubes (Costar, Cambridge, Mass.) in a final volume of 100 μl. […] The cell shape change was analyzed with the flow cytometer (Becton Dickinson, Mountain View, Calif.). […] Cell shape change was monitored in forward scatter signals. […] Samples after antibody staining were analyzed in flow cytometry.
The analysis of eosinophil cell shape change by flow cytometry, known as gated autofluorescence forward scatter (GAFS) assay, allows a quantitative measurement of cell shape change induced by chemoattractants (Sabroe et al., 1999, “Differential regulation of eosinophil chemokine signaling via CCR3 and non-CCR3 pathways,” J. Immunol., 162, 2946-2955). […]

[5] = cited from earlier work
[6] = after histamine treatment, FIG. 3A
[7] = histamine 0.1 uM alone, lower part
[8] = histamine 1 uM alone, lower part
[9] = histamine 10 uM alone, lower part

NCCc1c[nH]cn1 [histamine, 4-(2-amino-ethyl)imidazole]
cell shape change on eosinophils (human eosinophils [1]; 1 μM, 10 min): significant cell shape change
eosinophil shape change at 100 μM histamine (human eosinophils [1]; 100 μM): no shape change
earliest time at which eosinophil shape change is detected (human eosinophils [1]; [6]): 1 min
time of maximal eosinophil shape change (human eosinophils [1]; [6]): 5 min
time of return to the original cell shape (human eosinophils [1]; [6]): 40 min
combined effect on eosinophil shape change (human eosinophils [1]; histamine combined with MCP-3, sub-optimal concentrations): Partial additive effects
optimal concentration for maximal shape change on eosinophils (human eosinophils [1]; human PMNL, 10 min): ~1 µM
EC50 (human eosinophils [1]; human PMNL, FIG. 3D): 44 nM
expression of CD11a/CD18 (LFA-1) on eosinophils (human eosinophils [2]): not induced
optimal concentration for maximal up-regulation of CD11b/CD18 and CD54 (human eosinophils [2]; 10-minute stimulation): 10 µM
cell surface expression of CD11b/CD18 (Mac-1) and CD54 (ICAM-1) on eosinophils (human eosinophils [2]; 10 min, 37° C.): induced by histamine in a concentration-dependent manner
persistence of the increase in cell surface adhesion molecules (human eosinophils [2]; 60 minutes incubation): maintained
effect on eosinophil chemotaxis induced by eotaxin-2 and MCP-3 ([3]; 0.5 μM histamine): enhanced
EC50 ([3]; Homo sapiens, Eosinophil, Transwell, 2 h): 83 nM
concentration for maximal chemotactic effect on eosinophils ([3]; Transwell): 1 µM
nature of the effect on eosinophil migration ([3]; disruption of concentration gradient): chemotactic but not chemokinetic
% change (increase in FSC compared to unstimulated cells) ([4]; histamine 0.01 uM, upper part): 6.1%
GeoMean (FSC of eosinophils) ([4]; histamine 0.01 uM, upper part): 239.8
% change (increase in FSC compared to unstimulated cells) [4, 7]: 20.1%
GeoMean (FSC of eosinophils) [4, 7]: 327.7
% change (increase in FSC compared to unstimulated cells) ([4]; histamine 0.1 uM, upper part): 20.0%
GeoMean (FSC of eosinophils) ([4]; histamine 0.1 uM, upper part): 271.3
% change (increase in FSC compared to unstimulated cells) [4, 8]: 18.0%
GeoMean (FSC of eosinophils) [4, 8]: 321.9
% change (increase in FSC compared to unstimulated cells) ([4]; histamine 1 uM, upper part): 16.4%
GeoMean (FSC of eosinophils) ([4]; histamine 1 uM, upper part): 263.3
% change (increase in FSC compared to unstimulated cells) [4, 9]: 11.1%
GeoMean (FSC of eosinophils) [4, 9]: 303.3
% change (increase in FSC compared to unstimulated cells) ([4]; histamine 10 uM, upper part): 17.2%
GeoMean (FSC of eosinophils) ([4]; histamine 10 uM, upper part): 265.0
% change (increase in FSC compared to unstimulated cells) ([4]; histamine 100 uM, upper part): 30.8%
GeoMean (FSC of eosinophils) ([4]; histamine 100 uM, upper part): 295.8
concentration at which a significant eosinophil shape change was detected ([4]; whole blood, FIG. 7): ~0.1 µM
cell shape change on neutrophils (human neutrophils): no effects
half-life in serum [5]: around 1 min
